Measurements as given in patent US20220062240A1, “METHODS OF TREATING CANCER USING A CLK INHIBITOR” (BioSplice Therapeutics, Inc., priority 2018, published 2022).
pEC50: −log10 of the molar value. Like-named read-outs stand apart in the source and are kept apart here.

How the values were obtained:
CLK3 = CLK3 (Homo sapiens, UniProt P49761); assay: CLK3 kinase activity assay (Z-lyte, Ser/Thr 18 peptide)
all 50 cell lines = assay: CellTiter-Glo Viability Assay, average across all cell lines; type: cell-based; conditions: Homo sapiens, read-out: average EC50 for inhibition of cancer cell proliferation
How it was run: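 4-day proliferation, 37° C/5% CO2; 300-3,000 cells/well; compound in duplicate vs DMSO controls. Panel: breast, colorectal, heme/lymphoid, liver, lung, ovarian, pancreatic, prostate lines. Read-out: CellTiter-Glo ATP luminescence, EC50 from dose-response.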

ZR-75-1 = assay: CellTiter-Glo Viability Assay, breast cancer; type: cell-based; conditions: Homo sapiens, ZR-75-1, 96 h
T47D = assay: CellTiter-Glo Viability Assay, breast cancer; type: cell-based; conditions: Homo sapiens, 96 h
CAMA1 = assay: CellTiter-Glo Viability Assay, breast cancer; type: cell-based; conditions: Homo sapiens, CAMA-1, 96 h
DU4475 = assay: CellTiter-Glo Viability Assay, breast cancer; type: cell-based; conditions: Homo sapiens, DU-4475, 96 h
MDA-MB-231-Luc = assay: CellTiter-Glo Viability Assay, breast cancer; type: cell-based; conditions: Homo sapiens, 96 h
MCF7 = assay: CellTiter-Glo Viability Assay, breast cancer; type: cell-based; conditions: Homo sapiens, MCF7, 96 h
BT-549 = assay: CellTiter-Glo Viability Assay, breast cancer; type: cell-based; conditions: Homo sapiens, BT-549, 96 h
HCC1599 = assay: CellTiter-Glo Viability Assay, breast cancer; type: cell-based; conditions: Homo sapiens, HCC1599, 96 h
[1] = test system: ovarian cancer (4 cell lines); assay: CellTiter-Glo Viability Assay, ovarian cancer; type: cell-based; conditions: Homo sapiens
[2] = test system: haematopoietic & lymphoid tumors (13 cell lines); assay: CellTiter-Glo Viability Assay, haematopoietic & lymphoid tumors; type: cell-based; conditions: Homo sapiens
[3] = test system: colorectal cancer (6 cell lines); assay: CellTiter-Glo Viability Assay, colorectal cancer; type: cell-based; conditions: Homo sapiens
[4] = test system: liver cancer (3 cell lines); assay: CellTiter-Glo Viability Assay, liver cancer; type: cell-based; conditions: Homo sapiens
[5] = test system: pancreatic cancer (8 cell lines); assay: CellTiter-Glo Viability Assay, pancreatic cancer; type: cell-based; conditions: Homo sapiens
[6] = test system: prostate cancer (5 cell lines); assay: CellTiter-Glo Viability Assay, prostate cancer; type: cell-based; conditions: Homo sapiens
[7] = test system: lung cancer (4 cell lines); assay: CellTiter-Glo Viability Assay, lung cancer; type: cell-based; conditions: Homo sapiens

CLK3, sequence (P49761 whole entry): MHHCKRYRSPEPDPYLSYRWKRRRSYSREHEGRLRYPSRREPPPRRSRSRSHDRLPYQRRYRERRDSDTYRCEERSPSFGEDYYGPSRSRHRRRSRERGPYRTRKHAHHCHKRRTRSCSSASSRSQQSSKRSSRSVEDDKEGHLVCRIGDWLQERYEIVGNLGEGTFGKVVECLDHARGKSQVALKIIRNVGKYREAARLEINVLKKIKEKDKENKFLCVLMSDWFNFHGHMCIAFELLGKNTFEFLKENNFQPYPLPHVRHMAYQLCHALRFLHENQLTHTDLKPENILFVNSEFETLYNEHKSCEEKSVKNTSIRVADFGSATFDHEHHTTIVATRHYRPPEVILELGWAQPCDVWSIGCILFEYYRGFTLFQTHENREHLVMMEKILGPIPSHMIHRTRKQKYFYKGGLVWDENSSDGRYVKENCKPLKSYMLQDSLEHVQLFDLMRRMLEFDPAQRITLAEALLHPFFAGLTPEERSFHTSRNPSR

For `CN1CCN(C(=O)C(C)(C)c2ccc(C(=O)Nc3cn4cc(-c5ccncc5)ccc4n3)cc2)CC1` [Compound 27], the pEC50 (CLK3) was 7.46, the pEC50 (all 50 cell lines) was 5.55 and the pEC50 (ZR-75-1) was 5.41. The pEC50 (T47D) was 5.39, the pEC50 (CAMA1) was 5.37 and the pEC50 (DU4475) was 5.70. The pEC50 (MDA-MB-231-Luc) was 5.44, the pEC50 (MCF7) was 5.40 and the pEC50 (BT-549) was 5.44. For the same compound, the pEC50 (HCC1599) was 5.09, the EC50 ([1]; OV-90, read-out: Ovarian cancer, EC50 (μM) OV-90) was 3.87 µM and the EC50 ([1]; OVCAR-3, read-out: Ovarian cancer, EC50 (μM) OVCAR-3) was 1.31 µM. For the same compound, the EC50 ([1]; PA-1, read-out: Ovarian cancer, EC50 (μM) PA1) was 1.58 µM, the EC50 ([1]; TOV112D, read-out: Ovarian cancer, EC50 (μM) TOV-112D) was 2.32 µM and the EC50 ([2]; DND41, read-out: Haematopoietic & Lymphoid tumors, EC50 (μM) DND-41) was 1.78 µM. The EC50 ([2]; HL-60, read-out: Haematopoietic & Lymphoid tumors, EC50 (μM) HL-60) was 4.98 µM, the EC50 ([2]; JM1, read-out: Haematopoietic & Lymphoid tumors, EC50 (μM) JM1) was 0.982 µM and the EC50 ([2]; JeKo-1, read-out: Haematopoietic & Lymphoid tumors, EC50 (μM) JeKo-1) was 1.22 µM. The EC50 ([2]; Jurkat, read-out: Haematopoietic & Lymphoid tumors, EC50 (μM) JURKAT, Clone E6-1) was 3.85 µM, the EC50 ([2]; Kasumi 1, read-out: Haematopoietic & Lymphoid tumors, EC50 (μM) KASUMI-1) was 2.1 µM and the EC50 ([2]; MOLT-4, read-out: Haematopoietic & Lymphoid tumors, EC50 (μM) MOLT-4) was 2.39 µM. For the same compound, the EC50 ([2]; MV4-11, read-out: Haematopoietic & Lymphoid tumors, EC50 (μM) MV-4-11) was 0.275 µM, the EC50 ([2]; Rec1, read-out: Haematopoietic & Lymphoid tumors, EC50 (μM) REC-1) was 1 µM and the EC50 ([2]; SU-DHL-4, read-out: Haematopoietic & Lymphoid tumors, EC50 (μM) SUDHL4) was 2.54 µM. For the same compound, the EC50 ([2]; TF-1, read-out: Haematopoietic & Lymphoid tumors, EC50 (μM) TF-1) was 3.41 µM, the EC50 ([2]; Toledo, read-out: Haematopoietic & Lymphoid tumors, EC50 (μM) TOLEDO) was 1.1 µM and the EC50 ([2]; read-out: Haematopoietic & Lymphoid tumors, EC50 (μM) Loucy) was 1.49 µM. It also gave an EC50 ([3]; DLD-1, read-out: Colorectal cancer, EC50 (μM) DLD-1) of 1.65 µM, an EC50 ([3]; HCT-116, read-out: Colorectal cancer, EC50 (μM) HCT116) of 1.08 µM and an EC50 ([3]; HT-29, read-out: Colorectal cancer, EC50 (μM) HT29) of 2.38 µM. For the same compound, the EC50 ([3]; SW48, read-out: Colorectal cancer, EC50 (μM) SW48) was 0.675 µM, the EC50 ([3]; SW480, read-out: Colorectal cancer, EC50 (μM) SW480) was 1.08 µM and the EC50 ([3]; SW-620, read-out: Colorectal cancer, EC50 (μM) SW620) was 0.97 µM. It also gave a pEC50 ([4]; HepG2, read-out: Liver cancer, EC50 HEPG2) of 5.48, a pEC50 ([4]; PLC-PRF-5, read-out: Liver cancer, EC50 PLC/PRF/5) of 5.40 and a pEC50 ([4]; SNU-398, read-out: Liver cancer, EC50 SNU398) of 6.04. It also gave a pEC50 ([5]; BXPC-3, read-out: Pancreatic cancer, EC50 BxPC3) of 5.34, a pEC50 ([5]; CAPAN-1, read-out: Pancreatic cancer, EC50 Capan1) of 5.46 and a pEC50 ([5]; Capan-2, read-out: Pancreatic cancer, EC50 Capan2) of 5.42. For the same compound, the pEC50 ([5]; MIA PaCa-2, read-out: Pancreatic cancer, EC50 MIA PaCa-2) was 5.84, the pEC50 ([5]; PANC-1, read-out: Pancreatic cancer, EC50 PANC-1) was 5.33 and the pEC50 ([5]; Panc 05.04, read-out: Pancreatic cancer, EC50 PANC 05.04) was 5.44. It also gave a pEC50 ([5]; read-out: Pancreatic cancer, EC50 UPAFII) of 5.73, a pEC50 ([6]; 22Rv1, read-out: Prostate cancer EC50 22Rv1) of 5.54 and a pEC50 ([6]; DU-145, read-out: Prostate cancer EC50 Du-145) of 5.47. It also gave a pEC50 ([6]; LNCaP-Clone-FGC, read-out: Prostate cancer EC50 LNCap clone FGC) of 5.38, a pEC50 ([6]; PC-3, read-out: Prostate cancer EC50 PC3) of 5.59 and a pEC50 ([6]; VCaP, read-out: Prostate cancer EC50 VCaP (Sigma)) of 5.13. It also gave an EC50 ([7]; A-427, read-out: Lung cancer, EC50 (μM) A427) of 3.08 µM, an EC50 ([7]; HCC78, read-out: Lung cancer, EC50 (μM) HCC-78) of 3.72 µM and an EC50 ([7]; NCI-H460, read-out: Lung cancer, EC50 (μM) NCI-H460) of 3.54 µM. For the same compound, the EC50 ([7]; NCI-H522, read-out: Lung cancer, EC50 (μM) NCI-H522) was 1.99 µM.
